Source: patent publication US20060194235A1, “HLJ1 gene expression” (priority 2005, published 2006)

How the values were obtained:
[1] = tested on: PCY3 cells; experiment: In vitro Matrigel invasion assay; format: cell-based, human; settings: siRNA treated
Method: The metastatic potential of tumors depends, in part, on the ability of the tumor cells to invade through a basement membrane and migrate to distant sites. The ability of cells transfected with HLJ1 to penetrate a Matrigel™ membrane using an in vitro assay, which is a modified Boyden chamber assay, as described in Example 15, was determined as an index of the metastatic potential of these cells. The YY1 transfectant PCY3, which expressed a high level of HLJ1, reduced cell invasion capability to about 56% and about 61% of the levels of CL1-0 and mock transfectants, respectively (68).
In vitro Matrigel™ invasion assays were performed in 6.5-mm transwell chambers (8 μm pore size; Costar®). The transwell filters in the chambers were coated with Matrigel™ (Becton Dickinson, Franklin Lakes, N.J.) (58). After a 16 or 24 h incubation, the filter was gently removed from the chamber, and the noninvasive cells on the upper surface were removed by wiping with a cotton swab. The cells that invaded the Matrigel™ and attached to the lower surface of the filter were fixed with methanol and stained with Giemza solution (Sigma, St. Louis, Mo.). The number of cells attached to the lower surface of the polycarbonate filter was counted under a light microscope at 200× magnification. Five fields of adherent cells were randomly counted in each well and the results were numerically averaged. […]

[2] = tested on: HLJ1; experiment: siRNA knock-down of endogenous HLJ1 in the YY1 transfected cell line PCY3; format: cell-based, human; settings: PCY3 cells
Source text: Inhibiting the ability of transfected cells to express HLJ1 can restore their invasive capacity. Small inhibiting RNA (siRNA) specific for HLJ1 decreased the endogenous HLJ1 RNA level in the YY1 transfected cell line, PCY3.
Two siRNA sequences were synthesized according to standard protocols (68). The sequence of HLJ1-A was […]. The sequence of HLJ1-D was […]. HLJ1-A and HLJ1-D reduced its expression by 64%. […] A negative control, scrambled siRNA, had no significant effect on HLJ1 expression or invasive capacity.

HLJ1-D: siRNA specific for HLJ1, sequence AAACGCTGATGGAAGGAGTTA (other strand not given here)
ability of PCY3 cells to invade through Matrigel, compared to PCC2 cells [1]: 87%
reduction of HLJ1 expression [2]: 64%
